From patent US20260048051A1, “TREATMENT OF INFLAMMATORY BOWEL DISEASE” (Atomwise Inc., priority 2024, published 2026)

Molecular target: T1, TYK2-JH2 (Homo sapiens, UniProt P29597)
T1 construct: TYK JH2 enzyme mix (ChemPartner: CP20210818A-BV); purchased ChemPartner CP20210818A-BV
Experiment: TYK2-JH2 HTRF binding assay (ligand efficiency)
Conditions: calculated from binding-assay IC50 (Equation 1)
Experimental: The following example describes the TYK2-JH2 HTRF binding assay used to determine the ligand efficiency of the TYK2 inhibitors.
To calculate ligand efficiency, Equation 1 is applied: […]
in which IC50 comes from the binding assay used to determine compound potency.
TYK JH2 enzyme mix (ChemPartner: CP20210818A-BV), tracer (ChemPartner: CP-0029472-051) and mAb Anti-6HIS Tb cryptate Gold (Cisbio: Cat No. 61HI2TLA) mix were prepared in assay buffer (10 mM MgCl2, 20 mM HEPES pH 7.5, 0.01% Triton X-100, 1 mM DTT). Compounds diluted in DMSO (Final Concentrations 0.1 to 0.000005 [μM]) and enzyme mix (0.5 nM Final Concentration) were added to 384 well plates, briefly centrifuged and incubated at room temperature for 10 minutes. After incubation, tracer mix (Tracer-35 nM final concentration); (MAb Anti-6HIS Tb cryptate Gold-0.5× final)) was added, briefly centrifuged then incubate at room temperature 60 minutes. After incubation, plates were read by Envision TR-FRET (Ex340/Em495/520) protocol (PerkinElmer-Envision 2104 multilabel plate reader).

T1 sequence (P29597 589-875 limits assumed): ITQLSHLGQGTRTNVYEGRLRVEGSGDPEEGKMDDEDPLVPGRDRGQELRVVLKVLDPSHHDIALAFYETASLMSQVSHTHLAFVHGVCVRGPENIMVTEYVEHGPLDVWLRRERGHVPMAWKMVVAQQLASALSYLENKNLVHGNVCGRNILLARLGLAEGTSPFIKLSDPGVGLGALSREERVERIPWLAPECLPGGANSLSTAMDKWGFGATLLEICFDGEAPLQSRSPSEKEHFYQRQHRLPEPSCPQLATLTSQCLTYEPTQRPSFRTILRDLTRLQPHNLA

Compound	Ligand Efficiency
Cc1cccc(Nc2cc(Nc3ccccc3S(C)(=O)=O)nc(N)n2)n1 [Compound 57, N^4-(6-methylpyridin-2-yl)-N^6-(2-(methylsulfonyl)phenyl)pyrimidine-2,4,6-triamine]	††† (†††: >0.39)
Cn1ccc(Nc2cc(Nc3ccccc3S(C)(=O)=O)ncn2)n1 [Compound 66, N^4-(1-methyl-1H-pyrazol-3-yl)-N^6-(2-(methylsulfonyl)phenyl) pyrimidine-4,6-diamine]	††† (†††: >0.39)
CC(c1ccc(Nc2cc(Nc3ncccc3S(C)(=O)=O)ncn2)nc1)N1CC(F)C1 (stereo not drawn) [Compound 22, N^4-(5-(1-(3-fluoroazetidin-1-yl)ethyl)pyridin-2-yl)-N^6-(3-(methylsulfonyl)pyridin-2-yl)pyrimidine-4,6-diamine]	††† (†††: >0.39)
Cc1cccc(Nc2cc(Nc3ncccc3CS(C)(=O)=O)ncn2)n1 [Compound 71, N^4-(6-methylpyridin-2-yl)-N^6-(3-((methylsulfonyl)methyl)pyridin-2-yl)pyrimidine-4,6-diamine]	††† (†††: >0.39)
CC(C)(NC1COC1)c1ccc(Nc2cc(Nc3ccccc3S(C)(=O)=O)ncn2)nc1 [Compound 39, N^4-(2-(methylsulfonyl)phenyl)-N^6-(5-(2-(oxetan-3-ylamino)propan-2-yl)pyridin-2-yl)pyrimidine-4,6-diamine]	†† (††: 0.37-0.39)
CS(=O)(=O)c1cccnc1Nc1cc(Nc2ccc(C(=O)NC3CC(F)(F)C3)cn2)ncn1 [Compound 38, N-(3,3-difluorocyclobutyl)-6-(6-(3-(methylsulfonyl)pyridine-2-ylamino)pyrimidin-4-ylamino)nicotinamide]	††† (†††: >0.39)
Cc1cccc(Nc2cc(Nc3ccncc3S(C)(=O)=O)ncn2)n1 [Compound 60, N^4-(6-methylpyridin-2-yl)-N^6-(3-(methylsulfonyl)pyridin-4-yl) pyrimidine-4,6-diamine]	††† (†††: >0.39)
COc1ccnc(Nc2cc(Nc3ccc(C(C)N4CC5(COC5)C4)cn3)ncn2)c1S(C)(=O)=O (stereo not drawn) [Compound 76, N^4-(5-(1-(2-oxa-6-azaspiro[3.3]heptan-6-yl)ethyl)pyridin-2-yl)-N^6-(4-methoxy-3-(methylsulfonyl)pyridin-2-yl)pyrimidine-4,6-diamine]	† (†: < 0.37)
CC(c1ccc(Nc2ncnc(Nc3ncccc3S(C)(=O)=O)c2F)nc1)N1CC2(COC2)C1 (stereo not drawn) [Compound 75, N^4-(5-(1-(2-oxa-6-azaspiro[3.3]heptan-6-yl)ethyl)pyridin-2-yl)-5-fluoro-N^6-(3-(methylsulfonyl)pyridin-2-yl)pyrimidine-4,6-diamine]	† (†: < 0.37)
CC1(Nc2ccc(Nc3cc(Nc4ncccc4S(C)(=O)=O)ncn3)nc2)COC1 [Compound 21, N^4-(5-((3-methyloxetan-3-yl)amino)pyridin-2-yl)-N^6-(3-(methylsulfonyl)pyridin-2-yl)pyrimidine-4,6-diamine]	††† (†††: >0.39)
CS(=O)(=O)c1cccnc1Nc1cc(Nc2ccc(N3CCN(C4CC4)CC3)cn2)ncn1 [Compound 7, N^4-(5-(4-cyclopropylpiperazin-1-yl)pyridin-2-yl)-N^6-(3-(methylsulfonyl)pyridin-2-yl)pyrimidine-4,6-diamine]	††† (†††: >0.39)
Cc1cc(Nc2cc(Nc3ncccc3S(C)(=O)=O)ncn2)nnc1C(C)N1CC2(COC2)C1 (stereo not drawn) [Compound 77, N^4-(6-(1-(2-oxa-6-azaspiro[3.3]heptan-6-yl)ethyl)-5-methylpyridazin-3-yl)-N^6-(3-(methylsulfonyl)pyridin-2-yl)pyrimidine-4,6-diamine]	†† (††: 0.37-0.39)
CC(c1ccc(Nc2cc(Nc3ncc(C4COC4)cc3S(C)(=O)=O)ncn2)nc1)N1CC2(COC2)C1 (stereo not drawn) [Compound 78, N^4-(5-(1-(2-oxa-6-azaspiro[3.3]heptan-6-yl)ethyl)pyridin-2-yl)-N^6-(3-(methylsulfonyl)-5-(oxetan-3-yl)pyridin-2-yl)pyrimidine-4,6-diamine]	† (†: < 0.37)
Cc1cncc(Nc2cc(Nc3ccccc3C(N)=O)ncn2)n1 [Compound 49, 2-(6-(6-methylpyrazin-2-ylamino)pyrimidin-4-ylamino)benzamide]	††† (†††: >0.39)
C[C@H]1CN(C)CCN1c1ccc(Nc2cc(Nc3ncccc3S(C)(=O)=O)ncn2)nc1 [Compound 20, (S)—N^4-(5-(2,4-dimethylpiperazin-1-yl)pyridin-2-yl)-N^6-(3-(methylsulfonyl)pyridin-2-yl)pyrimidine-4,6-diamine]	††† (†††: >0.39)
CS(=O)(=O)c1ccccc1Nc1cc(Nc2ccc(C(=O)NC3CCOC3)cn2)ncn1 (stereo not drawn) [Compound 43, 6-(6-(2-(methylsulfonyl)phenylamino)pyrimidin-4-ylamino)-N-(tetrahydrofuran-3-yl)nicotinamide]	†† (††: 0.37-0.39)
CC(c1ccc(Nc2cc(Nc3ncccc3S(C)(=O)=O)ncn2)nc1)N1CC2(CC(C(F)F)C2)C1 (stereo not drawn) [Compound 34, N^4-(5-(1-(6-(difluoromethyl)-2-azaspiro[3.3]heptan-2-yl)ethyl)pyridin-2-yl)-N^6-(3-(methylsulfonyl)pyridin-2-yl)pyrimidine-4,6-diamine]	†† (††: 0.37-0.39)
CC(C)(c1ccc(Nc2cc(Nc3ncccc3S(C)(=O)=O)ncn2)nc1)N1CC2(CCOCC2)C1 [Compound 33, N^4-(5-(2-(7-oxa-2-azaspiro[3.5]nonan-2-yl)propan-2-yl)pyridin-2-yl)-N^6-(3-(methylsulfonyl)pyridin-2-yl)pyrimidine-4,6-diamine]	†† (††: 0.37-0.39)
CC1(Nc2ccc(Nc3cc(Nc4ncccc4S(C)(=N)=O)ncn3)nc2)COC1 (stereo not drawn) [Compound 73, N^4-(5-((3-methyloxetan-3-yl)amino)pyridin-2-yl)-N^6-(3-(S-methylsulfonimidoyl)pyridin-2-yl)pyrimidine-4,6-diamine]	††† (†††: >0.39)
C[C@@H](c1ccc(Nc2cc(Nc3ncccc3S(C)(=O)=O)ncn2)nc1)N1CCCC12CCOCC2 [Compound 29, (S)—N^4-(5-(1-(8-oxa-1-azaspiro[4.5]decan-1-yl)ethyl)pyridin-2-yl)-N^6-(3-(methylsulfonyl)pyridin-2-yl)pyrimidine-4,6-diamine]	†† (††: 0.37-0.39)
Cc1nc(Nc2cc(Nc3ncccc3S(C)(=O)=O)ncn2)ccc1NC1(C)COC1 [Compound 6, N^4-(6-methyl-5-((3-methyloxetan-3-yl)amino)pyridin-2-yl)-N^6-(3-(methylsulfonyl)pyridin-2-yl)pyrimidine-4,6-diamine]	††† (†††: >0.39)
Cc1cccc(Nc2cc(Nc3ccccc3C(N)=O)nc(N)n2)n1 [Compound 55, 2-((2-amino-6-((6-methylpyridin-2-yl)amino)pyrimidin-4-yl)amino)benzamide]	†† (††: 0.37-0.39)
CS(=O)(=O)c1ccccc1Nc1cc(Nc2ccc(NC3COC3)cn2)ncn1 [Compound 80, N^4-(2-(methylsulfonyl)phenyl)-N^6-(5-(oxetan-3-ylamino)pyridin-2-yl) pyrimidine-4,6-diamine]	† (†: < 0.37)
Cc1ccnc(Nc2cc(Nc3ccccc3S(C)(=O)=O)ncn2)c1 [Compound 44, N^4-(4-methylpyridin-2-yl)-N^6-(2-(methylsulfonyl)phenyl) pyrimidine-4,6-diamine]	††† (†††: >0.39)
